Experiments:
Assay in all cases: Reduction of azo substrates over 24 hours at 35° C., microtitration plate (Example 1)
Type in all cases: cell-based
Enterococcus faecalis = test system: Enterococcus faecalis; design: key to RED (substrate reduced or not): RED indicates whether the substrate is reduced (Y) or not (N); RED indicates whether the substrate is reduced (Y) or not (N); key to Decol (substrate decolourized, decrease in absorbance) / Fluo (fluorescence multiplied by 2 relative to substrate-free control) / Co (growth, absorbance at 660 nm): The symbol “+” means good growth/decolourization/significant increase in fluorescence; The symbol “+/−” means difficult growth; The symbol “−” means that there is no growth/decolourization/significant increase in fluorescence; conditions: E. faecalis, substrate 35 mg/l
Experimental: (§1) Reduction of the “azo” function of the substrates listed in Table I by the species listed in Table II, each species being represented by a strain, is tested in a microtitration plate.
(§2) The reaction medium consists of: • Trypcase soya broth • Substrate 35 mg/l • 0.5 MacFarland inoculum
(§3) The reduction of the substrate and the growth of the microorganisms are monitored using an Infinite® M200 Tecan microplate reader at 35° C. over 24 hours.
(§4) The growth is monitored by the absorbance at 660 nm and the reduction of the substrates by absorbance and fluorescence at the specific wavelengths indicated in Table III.
(§5) The substrate is considered as reduced by the microorganisms when the substrate is decolourized (monitored by the decrease in absorbance) (Decol) and/or when the fluorescence of the substrate is multiplied by 2 relative to the base fluorescence of a substrate-free control (Fluo). The growth is indicated by Co. The symbol “+” means good growth/decolourization/significant increase in fluorescence. The symbol “+/−” means difficult growth. The symbol “−” means that there is no growth/decolourization/significant increase in fluorescence. RED indicates whether the substrate is reduced (Y) or not (N).

Acinetobacter baumanii = test system: Acinetobacter baumanii; design: key to RED (substrate reduced or not): RED indicates whether the substrate is reduced (Y) or not (N); RED indicates whether the substrate is reduced (Y) or not (N); key to Decol (substrate decolourized, decrease in absorbance) / Fluo (fluorescence multiplied by 2 relative to substrate-free control) / Co (growth, absorbance at 660 nm): The symbol “+” means good growth/decolourization/significant increase in fluorescence; The symbol “+/−” means difficult growth; The symbol “−” means that there is no growth/decolourization/significant increase in fluorescence; conditions: A. baumannii, substrate 35 mg/l
Experimental: as §1, §2, §3, §4, §5

Pseudomonas aeruginosa = test system: Pseudomonas aeruginosa; design: key to RED (substrate reduced or not): RED indicates whether the substrate is reduced (Y) or not (N); RED indicates whether the substrate is reduced (Y) or not (N); key to Co (growth, absorbance at 660 nm) / Decol (substrate decolourized, decrease in absorbance) / Fluo (fluorescence multiplied by 2 relative to substrate-free control): The symbol “+” means good growth/decolourization/significant increase in fluorescence; The symbol “+/−” means difficult growth; The symbol “−” means that there is no growth/decolourization/significant increase in fluorescence; conditions: P. aeruginosa, substrate 35 mg/l
Experimental: as §1, §2, §3, §4, §5

Cronobacter muytjensii = test system: Cronobacter muytjensii; design: key to RED (substrate reduced or not): RED indicates whether the substrate is reduced (Y) or not (N); RED indicates whether the substrate is reduced (Y) or not (N); key to Co (growth, absorbance at 660 nm) / Decol (substrate decolourized, decrease in absorbance) / Fluo (fluorescence multiplied by 2 relative to substrate-free control): The symbol “+” means good growth/decolourization/significant increase in fluorescence; The symbol “+/−” means difficult growth; The symbol “−” means that there is no growth/decolourization/significant increase in fluorescence; conditions: E. muytjensii, substrate 35 mg/l
Experimental: as §1, §2, §3, §4, §5

Kocuria rosea = test system: Kocuria rosea; design: key to RED (substrate reduced or not): RED indicates whether the substrate is reduced (Y) or not (N); RED indicates whether the substrate is reduced (Y) or not (N); key to Co (growth, absorbance at 660 nm) / Decol (substrate decolourized, decrease in absorbance) / Fluo (fluorescence multiplied by 2 relative to substrate-free control): The symbol “+” means good growth/decolourization/significant increase in fluorescence; The symbol “+/−” means difficult growth; The symbol “−” means that there is no growth/decolourization/significant increase in fluorescence; conditions: K. rosea, substrate 35 mg/l
Experimental: as §1, §2, §3, §4, §5

[1] = test system: Staphylococcus epidermidis; design: key to RED (substrate reduced or not): RED indicates whether the substrate is reduced (Y) or not (N); RED indicates whether the substrate is reduced (Y) or not (N); key to Co (growth, absorbance at 660 nm) / Decol (substrate decolourized, decrease in absorbance) / Fluo (fluorescence multiplied by 2 relative to substrate-free control): The symbol “+” means good growth/decolourization/significant increase in fluorescence; The symbol “+/−” means difficult growth; The symbol “−” means that there is no growth/decolourization/significant increase in fluorescence; conditions: S. epidermidis, substrate 35 mg/l
Experimental: as §1, §2, §3, §4, §5

Staphylococcus aureus = test system: Staphylococcus aureus; design: key to RED (substrate reduced or not): RED indicates whether the substrate is reduced (Y) or not (N); RED indicates whether the substrate is reduced (Y) or not (N); key to Co (growth, absorbance at 660 nm) / Decol (substrate decolourized, decrease in absorbance) / Fluo (fluorescence multiplied by 2 relative to substrate-free control): The symbol “+” means good growth/decolourization/significant increase in fluorescence; The symbol “+/−” means difficult growth; The symbol “−” means that there is no growth/decolourization/significant increase in fluorescence; conditions: S. aureus, substrate 35 mg/l
Experimental: as §1, §2, §3, §4, §5

Geotrichum candidum = test system: Geotrichum candidum; design: key to RED (substrate reduced or not): RED indicates whether the substrate is reduced (Y) or not (N); RED indicates whether the substrate is reduced (Y) or not (N); key to Co (growth, absorbance at 660 nm) / Decol (substrate decolourized, decrease in absorbance) / Fluo (fluorescence multiplied by 2 relative to substrate-free control): The symbol “+” means good growth/decolourization/significant increase in fluorescence; The symbol “+/−” means difficult growth; The symbol “−” means that there is no growth/decolourization/significant increase in fluorescence; conditions: G. candidum, substrate 35 mg/l
Experimental: as §1, §2, §3, §4, §5

Candida albicans = test system: Candida albicans; design: key to RED (substrate reduced or not): RED indicates whether the substrate is reduced (Y) or not (N); RED indicates whether the substrate is reduced (Y) or not (N); key to Co (growth, absorbance at 660 nm) / Decol (substrate decolourized, decrease in absorbance) / Fluo (fluorescence multiplied by 2 relative to substrate-free control): The symbol “+” means good growth/decolourization/significant increase in fluorescence; The symbol “+/−” means difficult growth; The symbol “−” means that there is no growth/decolourization/significant increase in fluorescence; conditions: substrate 35 mg/l
Experimental: as §1, §2, §3, §4, §5

Escherichia coli = test system: Escherichia coli; design: key to RED (substrate reduced or not): RED indicates whether the substrate is reduced (Y) or not (N); RED indicates whether the substrate is reduced (Y) or not (N); key to Co (growth, absorbance at 660 nm) / Decol (substrate decolourized, decrease in absorbance) / Fluo (fluorescence multiplied by 2 relative to substrate-free control): The symbol “+” means good growth/decolourization/significant increase in fluorescence; The symbol “+/−” means difficult growth; The symbol “−” means that there is no growth/decolourization/significant increase in fluorescence; conditions: E. coli, substrate 35 mg/l
Experimental: as §1, §2, §3, §4, §5

O=S(=O)([O-])c1ccc(N=Nc2c(O)ccc3cc(S(=O)(=O)[O-])ccc23)cc1.[Na+].[Na+] [Sunset Yellow]
Co (growth, absorbance at 660 nm) (Enterococcus faecalis): +
Decol (substrate decolourized, decrease in absorbance) (Enterococcus faecalis): +
Fluo (fluorescence multiplied by 2 relative to substrate-free control) (Enterococcus faecalis): +
RED (substrate reduced or not) (Enterococcus faecalis): Y
Co (growth, absorbance at 660 nm) (Acinetobacter baumanii): +
Decol (substrate decolourized, decrease in absorbance) (Acinetobacter baumanii): −
Fluo (fluorescence multiplied by 2 relative to substrate-free control) (Acinetobacter baumanii): −
RED (substrate reduced or not) (Acinetobacter baumanii): N
Co (growth, absorbance at 660 nm) (Pseudomonas aeruginosa): +
Decol (substrate decolourized, decrease in absorbance) (Pseudomonas aeruginosa): −
Fluo (fluorescence multiplied by 2 relative to substrate-free control) (Pseudomonas aeruginosa): −
RED (substrate reduced or not) (Pseudomonas aeruginosa): N
Co (growth, absorbance at 660 nm) (Cronobacter muytjensii): +
Decol (substrate decolourized, decrease in absorbance) (Cronobacter muytjensii): −
Fluo (fluorescence multiplied by 2 relative to substrate-free control) (Cronobacter muytjensii): −
RED (substrate reduced or not) (Cronobacter muytjensii): N
Co (growth, absorbance at 660 nm) (Kocuria rosea): −
Decol (substrate decolourized, decrease in absorbance) (Kocuria rosea): −
Fluo (fluorescence multiplied by 2 relative to substrate-free control) (Kocuria rosea): −
Co (growth, absorbance at 660 nm) [1]: +
Decol (substrate decolourized, decrease in absorbance) [1]: −
Fluo (fluorescence multiplied by 2 relative to substrate-free control) [1]: −
RED (substrate reduced or not) [1]: N
Co (growth, absorbance at 660 nm) (Staphylococcus aureus): +
Decol (substrate decolourized, decrease in absorbance) (Staphylococcus aureus): −
Fluo (fluorescence multiplied by 2 relative to substrate-free control) (Staphylococcus aureus): −
RED (substrate reduced or not) (Staphylococcus aureus): N
Co (growth, absorbance at 660 nm) (Geotrichum candidum): +
Decol (substrate decolourized, decrease in absorbance) (Geotrichum candidum): −
Fluo (fluorescence multiplied by 2 relative to substrate-free control) (Geotrichum candidum): −
RED (substrate reduced or not) (Geotrichum candidum): N
Co (growth, absorbance at 660 nm) (Candida albicans): +
Decol (substrate decolourized, decrease in absorbance) (Candida albicans): +
Fluo (fluorescence multiplied by 2 relative to substrate-free control) (Candida albicans): +
RED (substrate reduced or not) (Candida albicans): Y
Co (growth, absorbance at 660 nm) (Escherichia coli): +
Decol (substrate decolourized, decrease in absorbance) (Escherichia coli): −
Fluo (fluorescence multiplied by 2 relative to substrate-free control) (Escherichia coli): −
RED (substrate reduced or not) (Escherichia coli): N
